Columns and labels:
[1] = molecular target: Protein cereblon/Epidermal growth factor receptor (Homo sapiens, UniProt P00533+Q96SW2); assay: Protac activity at E3 ubiquitin ligase/EGFR Del19/[…]/C797S mutant assessed as E3 ubiquitin ligase mediated EGFR degradation in human NCI-H1975 cells expressing Del19/[…]/C797S mutant in clone 28 after 16 hrs by HTRF assay; type: cell-based
[2] = tested on: Protein cereblon/Epidermal growth factor receptor (Homo sapiens), P00533+Q96SW2 [UNDEFINED MUTATION]; assay: Protac activity at E3 ubiquitin ligase/EGFR Del19/[…]/C797S mutant assessed as E3 ubiquitin ligase mediated EGFR degradation in human NCI-H1975 cells expressing Del19/[…]/C797S mutant in clone 28 after 16 hrs by HTRF assay relative to control; type: cell-based
Protein cereblon/Epidermal growth factor receptor (Homo sapiens), P00533+Q96SW2 [UNDEFINED MUTATION], sequence (P00533 whole entry, looked up, stated change not applied): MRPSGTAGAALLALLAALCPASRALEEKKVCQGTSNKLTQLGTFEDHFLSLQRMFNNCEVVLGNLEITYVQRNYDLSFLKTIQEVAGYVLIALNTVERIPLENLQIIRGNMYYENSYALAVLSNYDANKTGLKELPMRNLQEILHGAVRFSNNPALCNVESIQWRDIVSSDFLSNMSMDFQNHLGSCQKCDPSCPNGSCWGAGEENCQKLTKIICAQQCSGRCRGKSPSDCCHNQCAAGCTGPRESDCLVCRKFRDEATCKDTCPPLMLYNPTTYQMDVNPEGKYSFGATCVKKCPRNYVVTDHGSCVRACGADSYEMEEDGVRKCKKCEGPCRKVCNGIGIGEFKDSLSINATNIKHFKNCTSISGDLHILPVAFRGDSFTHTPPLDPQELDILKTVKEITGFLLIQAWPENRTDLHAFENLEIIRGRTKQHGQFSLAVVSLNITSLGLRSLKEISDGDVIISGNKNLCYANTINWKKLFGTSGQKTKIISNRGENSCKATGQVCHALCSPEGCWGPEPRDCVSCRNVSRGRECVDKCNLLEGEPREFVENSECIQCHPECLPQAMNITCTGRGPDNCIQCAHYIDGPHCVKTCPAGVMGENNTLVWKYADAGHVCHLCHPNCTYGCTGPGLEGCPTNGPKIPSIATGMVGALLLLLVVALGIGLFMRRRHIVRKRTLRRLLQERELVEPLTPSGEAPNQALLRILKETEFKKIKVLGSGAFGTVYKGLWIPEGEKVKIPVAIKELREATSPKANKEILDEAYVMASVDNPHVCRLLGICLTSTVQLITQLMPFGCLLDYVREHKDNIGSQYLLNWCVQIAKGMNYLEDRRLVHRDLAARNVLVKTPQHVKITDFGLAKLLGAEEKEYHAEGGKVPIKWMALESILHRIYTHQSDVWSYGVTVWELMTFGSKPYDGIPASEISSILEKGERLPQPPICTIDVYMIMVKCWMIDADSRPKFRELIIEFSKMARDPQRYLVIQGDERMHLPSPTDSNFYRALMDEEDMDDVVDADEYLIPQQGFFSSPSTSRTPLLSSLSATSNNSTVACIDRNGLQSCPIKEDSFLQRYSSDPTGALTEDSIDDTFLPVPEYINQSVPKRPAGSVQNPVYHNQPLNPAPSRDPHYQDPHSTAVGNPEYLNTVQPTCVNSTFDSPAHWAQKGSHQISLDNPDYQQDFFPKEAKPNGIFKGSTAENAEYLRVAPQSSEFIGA
Protein cereblon/Epidermal growth factor receptor (Homo sapiens), P00533+Q96SW2 [UNDEFINED MUTATION], sequence (Q96SW2 whole entry, looked up, stated change not applied): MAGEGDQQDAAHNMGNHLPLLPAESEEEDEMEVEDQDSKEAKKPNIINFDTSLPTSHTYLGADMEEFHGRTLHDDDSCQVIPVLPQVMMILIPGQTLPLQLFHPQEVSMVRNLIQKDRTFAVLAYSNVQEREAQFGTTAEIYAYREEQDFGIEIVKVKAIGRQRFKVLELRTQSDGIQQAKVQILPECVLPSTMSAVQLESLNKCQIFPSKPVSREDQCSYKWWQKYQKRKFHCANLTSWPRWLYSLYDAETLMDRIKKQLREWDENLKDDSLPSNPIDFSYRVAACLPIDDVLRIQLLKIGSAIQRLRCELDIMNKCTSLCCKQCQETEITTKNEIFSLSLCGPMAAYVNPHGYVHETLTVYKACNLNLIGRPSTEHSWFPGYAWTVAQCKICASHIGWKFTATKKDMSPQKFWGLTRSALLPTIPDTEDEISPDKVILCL

Protein cereblon/Epidermal growth factor receptor, sequence (P00533 whole entry, looked up, stated change not applied): as the sequence (P00533 whole entry, looked up, stated change not applied) above
Protein cereblon/Epidermal growth factor receptor, sequence (Q96SW2 whole entry, looked up, stated change not applied): as the sequence (Q96SW2 whole entry, looked up, stated change not applied) above

Row | Structure (SMILES) | DC50 [1] | Emax [2]
1 | CCc1cc(Nc2ncc(Br)c(Nc3cnc4ccccc4c3P(C)(C)=O)n2)c(OC)cc1N1CCC(N2CCN(CCc3cccc4c3n(C3CC3)c(=O)n4C3CCC(=O)NC3=O)CC2)CC1 (centres undefined) | 700 nM | 85%
2 | CCOc1cc(N2CCC(N3CCN(CCc4cc(F)c(F)c5c4oc(=O)n5C4CCC(=O)NC4=O)CC3)CC2)c(CC)cc1Nc1ncc(Br)c(Nc2cnc3ccccc3c2P(C)(C)=O)n1 (centres undefined) | 600 nM | 81%
3 | CCc1cc(Nc2ncc(Br)c(Nc3cnc4ccccc4c3P(C)(C)=O)n2)c(OC)cc1N1CCC(N2CCN(CCc3cccc4c3n(CC)c(=O)n4C3CCC(=O)NC3=O)CC2)CC1 (centres undefined) | 900 nM | 83%
4 | CCOc1cc(N2CCC(N3CCN(CCc4cccc5c4n(C)c(=O)n5C4CCC(=O)NC4=O)CC3)CC2)c(CC)cc1Nc1ncc(Br)c(Nc2cnc3ccccc3c2P(C)(C)=O)n1 (centres undefined) | 4400 nM | 84%
5 | CCOc1cc(N2CCC(N3CCN(CCc4cccc5c4n(C)c(=O)n5C4CCC(=O)NC4=O)CC3)CC2)c(CC)cc1Nc1ncc(Br)c(Nc2cnc3cc(F)ccc3c2P(C)(C)=O)n1 (centres undefined) | 400 nM | 84%
6 | CCc1cc(Nc2ncc(Br)c(Nc3cnc4ccccc4c3P(C)(C)=O)n2)c(OC)cc1N1CCC(N2CCN(CCc3ccc(F)c4c3n(C)c(=O)n4C3CCC(=O)NC3=O)CC2)CC1 (centres undefined) | 1000 nM | 86%
7 | CCc1cc(Nc2ncc(Br)c(Nc3cnc4ccccc4c3P(C)(C)=O)n2)c(OC)cc1N1CCC(N2CCN(CCc3ccc4c(oc(=O)n4C4CCC(=O)NC4=O)c3F)CC2)CC1 (centres undefined) | 900 nM | 81%

— ChEMBL document CHEMBL5113555, “Potent PROTACs Targeting EGFR Mutants in Drug Discovery” (ACS Med Chem Lett, 2022)
